# Results reported in patent publication US6124269A, “2-Halo-6-O-substituted ketolide derivatives” (priority 1998, dated 2000).
# Legend:
# Format in all cases: cell-based
# [1] = tested on: Staphylococcus epidermidis 3519; assay: In vitro agar dilution MIC, organism code HH; conditions: Table 1B, in µg/mL (unit assumed)
# How it was run: (§1)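 Agar dilution in Brain Heart Infusion agar, twelve successive compound dilutions; inocula at 1:100 dilution (1:10 for slow-growing strains such as Streptococcus) applied by replicator. Incubation 35-37° C. for 20 to 24 hours; MIC is lowest concentration giving no growth, slight haze or sparse colonies versus growth control.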
# [2] = tested on: Staphylococcus aureus A5177; assay: In vitro agar dilution MIC, organism code BB; conditions: Table 1B, in µg/mL (unit assumed)
# How it was run: as §1
# [3] = tested on: Micrococcus luteus ATCC 9341; assay: In vitro agar dilution MIC, organism code OO; conditions: Table 1B, unit assumed
# How it was run: as §1
# Escherichia coli DC-2 = assay: In vitro agar dilution MIC, organism code SS; conditions: Table 1B, unit assumed
# How it was run: as §1
# [4] = tested on: Streptococcus pyogenes PIU 2548; assay: In vitro agar dilution MIC, organism code NN; conditions: Table 1B, unit assumed
# How it was run: as §1
# [5] = tested on: Staphylococcus aureus CMX 642A; assay: In vitro agar dilution MIC, organism code DD; conditions: Table 1B, unit assumed
# How it was run: as §1
# Escherichia coli SS = assay: In vitro agar dilution MIC, organism code RR; conditions: Table 1B, in µg/mL (unit assumed)
# How it was run: as §1
# [6] = tested on: Staphylococcus aureus A-5278; assay: In vitro agar dilution MIC, organism code CC; conditions: Table 1B, unit assumed
# How it was run: as §1
# [7] = tested on: Streptococcus pyogenes EES61; assay: In vitro agar dilution MIC, organism code LL; conditions: Table 1B, unit assumed
# How it was run: as §1
# Escherichia coli JUHL = assay: In vitro agar dilution MIC, organism code QQ; conditions: Table 1B, in µg/mL (unit assumed)
# How it was run: as §1
# [8] = tested on: Nocardia asteroides ATCC 9970; assay: In vitro agar dilution MIC, organism code VV; conditions: Table 1B, in µg/mL (unit assumed)
# How it was run: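 Test compound serially diluted in Brain Heart Infusion agar across twelve plates; strains applied by Steers replicator at 1:100 dilution (1:10 for slow growers such as Streptococcus). Plates incubated 20 to 24 hours at 35-37° C. MIC taken as lowest concentration giving no growth, slight haze or sparse isolated colonies versus drug-free control.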
# [9] = tested on: Staphylococcus aureus CMX 553; assay: In vitro agar dilution MIC, organism code FF; conditions: Table 1B, unit assumed
# How it was run: as §1
# [10] = tested on: Enterococcus faecium ATCC 8043; assay: In vitro agar dilution MIC, organism code II; conditions: Table 1B, unit assumed
# How it was run: as §1
# [11] = tested on: Streptococcus bovis A-5169; assay: In vitro agar dilution MIC, organism code JJ; conditions: Table 1B, unit assumed
# How it was run: as §1
# [12] = tested on: Streptococcus pyogenes 930; assay: In vitro agar dilution MIC, organism code MM; conditions: Table 1B, unit assumed
# How it was run: as §1
# [13] = tested on: Staphylococcus aureus NCTC10649M; assay: In vitro agar dilution MIC, organism code EE; conditions: Table 1B, unit assumed
# How it was run: as §1
# [14] = tested on: Haemophilis influenzae DILL AMP R; assay: In vitro agar dilution MIC, organism code WW; conditions: Table 1B, unit assumed
# How it was run: as §1
# [15] = tested on: Streptococcus pneumoniae 5649; assay: In vitro agar dilution MIC, organism code ZZA; conditions: Table 1B, unit assumed
# How it was run: as §1
# [16] = tested on: Streptococcus pneumoniae 5979; assay: In vitro agar dilution MIC, organism code ZZ; conditions: Table 1B, unit assumed
# How it was run: as §1
# [17] = tested on: Streptococcus pneumoniae ATCC 6303; assay: In vitro agar dilution MIC, organism code XX; conditions: Table 1B, unit assumed
# How it was run: as §1
# [18] = tested on: Mycobacterium smegmatis ATCC 114; assay: In vitro agar dilution MIC, organism code UU; conditions: Table 1B, in µg/mL (unit assumed)
# How it was run: as §1
# [19] = tested on: Streptococcus agalactiae CMX 508; assay: In vitro agar dilution MIC, organism code KK; conditions: Table 1B, unit assumed
# How it was run: as §1
# [20] = tested on: Micrococcus luteus ATCC 4698; assay: In vitro agar dilution MIC, organism code PP; conditions: Table 1B, in µg/mL (unit assumed)
# How it was run: as §1
# Candida albicans CCH 442 = assay: In vitro agar dilution MIC, organism code TT; conditions: Table 1B, unit assumed
# How it was run: as §1
# [21] = tested on: Streptococcus pneumoniae GYR 1171; assay: In vitro agar dilution MIC, organism code YY; conditions: Table 1B, unit assumed
# How it was run: as §1
# [22] = tested on: Staphylococcus aureus 1775; assay: In vitro agar dilution MIC, organism code GG; conditions: Table 1B, unit assumed
# How it was run: as §1
# [23] = tested on: Staphylococcus aureus ATCC 6538P; assay: In vitro agar dilution MIC, organism code AA; conditions: Table 1B, unit assumed
# How it was run: as §1
SMILES,MIC [1],MIC [2],MIC [3] [µg/mL],MIC (Escherichia coli DC-2) [µg/mL],MIC [4] [µg/mL],MIC [5] [µg/mL],MIC (Escherichia coli SS),MIC [6] [µg/mL],MIC [7] [µg/mL],MIC (Escherichia coli JUHL),MIC [8],MIC [9] [µg/mL],MIC [10] [µg/mL],MIC [11] [µg/mL],MIC [12] [µg/mL],MIC [13] [µg/mL],MIC [14] [µg/mL],MIC [15] [µg/mL],MIC [16] [µg/mL],MIC [17] [µg/mL],also measured
CC[C@H]1OC(=O)C(C)(F)C(=O)[C@H](C)[C@@H](O[C@@H]2O[C@H](C)C[C@H](N(C)C)[C@H]2O)[C@](C)(OCC#Cc2cnc3ccccc3c2)C[C@@H](C)C(=O)[C@H](C)[C@H]2NC(=O)O[C@@]21C (stereo partly drawn) [Example 26],0.05,0.05,0.02,25,0.05,0.05,0.2,> 100,0.02,25,0.01,0.05,0.02,0.01,0.1,0.1,2,0.25,16,≤ 0.004,MIC [18]: 0.2; MIC [19]: 0.02 µg/mL; MIC [20]: 0.05; MIC (Candida albicans CCH 442): > 100 µg/mL; MIC [21]: ≤ 0.004 µg/mL; MIC [22]: > 100 µg/mL; MIC [23]: 0.05 µg/mL
CC[C@H]1OC(=O)[C@@](C)(F)C(=O)[C@H](C)[C@@H](O[C@@H]2O[C@H](C)C[C@H](N(C)C)[C@H]2O)[C@](C)(OC/C=C/c2cnc3ccc(NC(=O)OC(C)(C)C)cc3c2)C[C@@H](C)C(=O)[C@H](C)[C@H]2NC(=O)O[C@@]21C [Example 8],0.39,0.39,0.05,> 100,0.39,0.39,6.2,> 100,0.05,> 100,0.78,0.39,0.2,0.05,12.5,0.39,16,1,16,0.06,MIC [18]: 0.78; MIC [19]: 0.05 µg/mL; MIC [20]: 0.39; MIC (Candida albicans CCH 442): > 100 µg/mL; MIC [21]: 0.06 µg/mL; MIC [22]: > 100 µg/mL; MIC [23]: 0.39 µg/mL
CC[C@H]1OC(=O)[C@@](C)(F)C(=O)[C@H](C)[C@@H](O[C@@H]2O[C@H](C)C[C@H](N(C)C)[C@H]2O)[C@](C)(OC/C=C/c2cnc3ncccc3c2)C[C@@H](C)C(=O)[C@H](C)[C@H]2NC(=O)O[C@@]21C [Example 11],0.05,0.05,0.01,12.5,0.01,0.05,0.2,> 100,0.39,25,0.01,0.05,0.05,0.01,0.1,0.05,2,0.25,0.125,≤ 0.004,MIC [18]: 0.78; MIC [19]: 0.01 µg/mL; MIC [20]: 0.05; MIC (Candida albicans CCH 442): > 100 µg/mL; MIC [21]: ≤ 0.004 µg/mL; MIC [22]: 100 µg/mL; MIC [23]: 0.05 µg/mL
CC[C@H]1OC(=O)[C@@](C)(F)C(=O)[C@H](C)[C@@H](O[C@@H]2O[C@H](C)C[C@H](N(C)C)[C@H]2O)[C@](C)(OC/C=C/c2cnc3ccc(C=NN)cc3c2)C[C@@H](C)C(=O)[C@H](C)[C@H]2NC(=O)O[C@@]21C [Example 19],0.2,0.2,0.02,100,0.2,0.2,0.78,> 100,0.02,100,0.02,0.2,0.05,≤ 0.005,1.56,0.2,2,0.5,1,0.06,MIC [18]: 0.78; MIC [19]: 0.02 µg/mL; MIC [20]: 0.1; MIC (Candida albicans CCH 442): > 100 µg/mL; MIC [21]: 0.06 µg/mL; MIC [22]: > 100 µg/mL; MIC [23]: 0.1 µg/mL
